Consider one compound from US9359381B2, “Tricyclic compounds for inhibiting the CFTR channel” (Novartis AG, priority 2012, dated 2016).

This assay has as its target T1, WT-CFTR channels (Homo sapiens, UniProt P13569).
T1 construct: expressed in transfected cells
The assay can be described thus: IonWorks Quattro CFTR inhibitor assay (whole-cell planar patch clamp). It is filed as cell-based. The note with it: inward current (−100 mV); CHO cells stably expressing WT-CFTR; CFTR activated by 10 μM forskolin; 10 min compound incubation. On the technique in general: In patch-clamp work, channel activity is measured electrically.

SMILES strings stand for the structures.

T1 sequence (P13569 whole entry): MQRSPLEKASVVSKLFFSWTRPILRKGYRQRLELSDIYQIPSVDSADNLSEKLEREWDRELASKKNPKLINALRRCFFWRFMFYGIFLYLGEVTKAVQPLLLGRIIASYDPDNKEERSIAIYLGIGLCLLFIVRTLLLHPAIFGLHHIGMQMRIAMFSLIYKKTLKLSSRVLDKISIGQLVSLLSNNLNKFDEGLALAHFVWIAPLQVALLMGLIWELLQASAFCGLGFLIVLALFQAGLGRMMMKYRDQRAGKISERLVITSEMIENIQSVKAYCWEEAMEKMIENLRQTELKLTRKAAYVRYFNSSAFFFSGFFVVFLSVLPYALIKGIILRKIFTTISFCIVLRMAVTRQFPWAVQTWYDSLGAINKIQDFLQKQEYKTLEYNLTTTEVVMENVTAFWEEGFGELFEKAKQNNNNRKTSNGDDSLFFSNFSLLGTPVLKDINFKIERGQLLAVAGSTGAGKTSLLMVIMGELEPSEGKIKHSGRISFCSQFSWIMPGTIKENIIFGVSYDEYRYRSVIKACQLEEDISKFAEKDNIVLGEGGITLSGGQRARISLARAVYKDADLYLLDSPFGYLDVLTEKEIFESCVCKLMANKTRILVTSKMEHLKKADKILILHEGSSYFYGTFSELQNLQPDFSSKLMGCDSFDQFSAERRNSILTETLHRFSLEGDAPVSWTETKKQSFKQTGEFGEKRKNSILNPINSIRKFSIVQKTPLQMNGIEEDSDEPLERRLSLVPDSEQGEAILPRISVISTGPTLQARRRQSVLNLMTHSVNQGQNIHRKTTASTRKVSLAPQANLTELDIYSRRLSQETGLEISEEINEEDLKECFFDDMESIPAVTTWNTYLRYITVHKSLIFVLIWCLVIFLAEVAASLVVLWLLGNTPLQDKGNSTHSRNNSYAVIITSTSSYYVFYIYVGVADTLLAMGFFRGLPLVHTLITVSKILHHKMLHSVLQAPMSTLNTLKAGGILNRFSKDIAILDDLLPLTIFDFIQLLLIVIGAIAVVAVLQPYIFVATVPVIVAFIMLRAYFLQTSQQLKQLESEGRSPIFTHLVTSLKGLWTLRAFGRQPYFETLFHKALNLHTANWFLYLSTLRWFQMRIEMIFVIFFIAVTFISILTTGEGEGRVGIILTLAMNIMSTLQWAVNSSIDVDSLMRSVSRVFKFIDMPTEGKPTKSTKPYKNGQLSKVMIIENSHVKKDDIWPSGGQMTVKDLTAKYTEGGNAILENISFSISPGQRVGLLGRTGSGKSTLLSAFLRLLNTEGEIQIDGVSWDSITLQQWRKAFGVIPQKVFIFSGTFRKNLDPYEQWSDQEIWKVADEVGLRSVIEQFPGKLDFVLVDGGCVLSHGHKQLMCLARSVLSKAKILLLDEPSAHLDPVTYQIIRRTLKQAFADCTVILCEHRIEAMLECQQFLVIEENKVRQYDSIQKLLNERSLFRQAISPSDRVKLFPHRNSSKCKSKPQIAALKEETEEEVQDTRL
Description: This assay directly measures the currents associated with chloride flow through CFTR channels whilst either maintaining or adjusting the transmembrane voltage.
Chinese hamster ovary (CHO) cells stably expressing WT-CFTR channels were used for the IonWorks Quattro experiments. Cells were maintained at 37° C. in 5% v/v CO2 at 100% humidity in MEM alpha medium supplemented with 10% (v/v) FCS, 100 U/mL Penicillin/Streptomycin, and 100 μg/L methotrexate. For experiments, cells were grown in 225 cm^2 tissue culture flasks until almost confluent. Cells were removed from the flask using trypsin-EDTA and resuspended in extracellular recording solution for immediate experimentation.
Cells, at a density of 1.5-2 million per mL, were placed on the Quattro system, added to the planar patch plate and seals allowed to establish for 5-10 mins. […] CFTR was activated by the addition of 10 μM forskolin to each of the 384 wells of the patch plate. […] Test compounds, diluted from 10 mM stocks in DMSO in extracellular solution were then added to the patch plate and were incubated for a further 10 min. […] This was determined at both −100 mV and +100 mV which represents the inward and outward current respectively.

By IC50 is commonly meant the concentration at which inhibition is half-maximal. Turning to `Cc1csc(-c2c3c(=O)n(C)c(=O)n(C)c3c3n2CCC[C@H]3c2nc(Cl)cs2)n1` (single isomer, unassigned) [Example 13.2a, 10-(4-chlorothiazol-2-yl)-1,3-dimethyl-5-(4-methylthiazol-2-yl)-7,8,9,10-tetrahydropyrimido[4,5-a]indolizine-2,4(1H,3H)-dione], the IC50 is 0.05 µM.
